In ChEMBL document CHEMBL3217718, “Synthesis, radical scavenging activity and structureactivity relationship of uric acid analogs” (Medchemcomm, 2013):
Converted amounts (≈) assume the structure as drawn. The source made the active and inactive calls. No cut-off for these calls is given here.

Tests used:
[1] = tested on: Radical scavenging activity; assay: Antioxidant activity assessed as DPPH radical scavenging activity at 500 uM measured for 60 secs by spectrophotometric analysis; format: functional
[2] = Solubility of the compound in PBS buffer at pH 7.4 at 37 degC; format: physicochemical
HL-60 = assay: Cytotoxicity against human HL60 cells assessed as cell viability up to 120 uM after 24 hrs by trypan blue assay; format: cell-based; details: hl-60, 24 h
[3] = tested on: Radical scavenging activity; assay: Antioxidant activity assessed as DPPH radical scavenging rate constant measured for 60 secs by spectrophotometric analysis; format: functional
[4] = Solubility of the compound in serum at pH 7.4; format: ADME

Compound	Activity [1]	Activity [3] [×10³ /M/s]	other results
COc1ccc2[nH]c(=O)[nH]c2c1	inactive		
O=C1Cc2cc(O)ccc2N1		11	solubility [2]: 225 µg/mL (≈ 1510 µM); Activity (HL-60): Non-toxic
O=C1Cc2ccccc2N1	inactive		
[Na+].[O-]c1nc2c(O)nc(O)nc2[nH]1		0.7	solubility [4]: 70 µg/mL
O=c1[nH]c2ccc(O)cc2[nH]1		110	solubility [2]: 65 µg/mL (≈ 433 µM); Activity (HL-60): Non-toxic
O=c1[nH]c2ccc(O)cc2o1		8.7	
O=C1Cc2cccc(O)c2N1		0.12	
Oc1ccc2cc[nH]c2c1		11	
O=c1[nH]c2ccccc2[nH]1	inactive		
O=c1[nH]c2cccc(O)c2[nH]1		0.37	
c1ccc2[nH]cnc2c1	inactive		
Oc1ccc2c(c1)CCC2	inactive		
Oc1cccc2c1CCN2		0.21	
O=c1[nH]c2ccc(O)nc2[nH]1		71	solubility [2]: 82 µg/mL (≈ 543 µM); Activity (HL-60): Non-toxic
O=c1[nH]c(=O)c2[nH]c(=O)[nH]c2[nH]1 [URIC ACID]			solubility [2]: 53 µg/mL (≈ 315 µM); Activity (HL-60): Non-toxic
Oc1ccc2[nH]ccc2c1		2.6	
CC1=NN(c2ccccc2)C(=O)C1		72	
O=C1Cc2ccccc2C1	inactive		
Oc1ccc(O)cc1 [HYDROQUINONE]		4.4	Activity (HL-60): Toxic
Nc1ccc(O)cc1 [4-AMINOPHENOL]		310	Activity (HL-60): Toxic
COc1ccc2[nH]c(=O)[nH]c2n1	inactive		
O=C1Cc2ccc(O)cc2N1		0.93	
